target: SIRT6 enzyme (Homo sapiens, UniProt Q8N6T7); assay: Measurement of deacetylation activity (SIRT6, AlphaLISA, H3K9(Ac) peptide); type: biochemical; details: SIRT6 25 ng/mL, H3K9(Ac) biotin peptide 2 nM, NAD 10 μM, room temperature 30 minutes, duplicate
Procedure, shortened: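 SIRT6 (25 ng/mL final) in Tris-HCl pH 8.0 buffer with compound (e.g. 0.046–100 μM final) reacted with biotin-H3K9(Ac) peptide (2 nM) and NAD+ (10 μM), 30 min, room temperature. Stopped with nicotinamide plus AlphaLISA anti-unmodified H3K9/K27 beads, 60 min; EC150 (150% relative activity) from sigmoidal fit.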

Chain of SIRT6 enzyme (Q8N6T7 whole entry, species assumed): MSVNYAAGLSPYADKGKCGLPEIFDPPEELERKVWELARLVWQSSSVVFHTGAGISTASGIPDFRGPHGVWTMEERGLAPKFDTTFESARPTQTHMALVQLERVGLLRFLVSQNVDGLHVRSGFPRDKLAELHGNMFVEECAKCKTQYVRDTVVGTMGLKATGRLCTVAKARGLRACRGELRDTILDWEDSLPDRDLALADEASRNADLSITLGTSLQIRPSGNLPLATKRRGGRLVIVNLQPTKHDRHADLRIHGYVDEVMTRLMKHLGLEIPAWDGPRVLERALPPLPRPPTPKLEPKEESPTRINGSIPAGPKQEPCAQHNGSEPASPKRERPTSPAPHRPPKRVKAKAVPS

SMILES | EC150 (the concentration of the compound showing a relative enzyme activity of 150%)
COc1cc(-c2noc(N3CCc4nc(NC(=O)NCc5nccn5C)sc4C3)n2)ccc1F [Example 100, N-{5-[3-(4-fluoro-3-methoxyphenyl)-1,2,4-oxadiazol-5-yl]-4,5,6,7-tetrahydro[1,3]thiazolo[5,4-c]pyridin-2-yl}-N′-[(1-methyl-1H-imidazol-2-yl)methyl]urea] | 2.6 μm
CNC(=O)Nc1nc2c(s1)C1COCC(C2)N1c1ncc(-c2cccc(C(=O)C3CC3)c2F)o1 (stereo not drawn) [Example 116, N-(10-{5-[3-(cyclopropanecarbonyl)-2-fluorophenyl]-1,3-oxazol-2-yl}-4,7,8,9-tetrahydro-5H-4,8-epiminooxocino[5,4-d][1,3]thiazol-2-yl)-N′-methylurea] | 3.1 μm
COc1cccc(-c2cnc(N3[C@@H]4COC[C@H]3c3sc(NC(=O)NC5CCOCC5)nc3C4)o2)n1 [Example 186, N-{(4S,8S)-10-[5-(6-methoxypyridin-2-yl)-1,3-oxazol-2-yl]-4,7,8,9-tetrahydro-5H-4,8-epiminooxocino[5,4-d][1,3]thiazol-2-yl}-N′-oxan-4-ylurea] | 0.48 μm
CNC(=O)Nc1nc2c(s1)C1CN(C(=O)OC)CC(C2)N1c1cc(-c2ccc(F)cc2)on1 (stereo not drawn) [Example 64, Methyl 10-[5-(4-fluorophenyl)-1,2-oxazol-3-yl]-2-[(methylcarbamoyl)amino]-4,7,8,9-tetrahydro-4,8-epimino[1,3]thiazolo[5,4-d]azocine-6(5H)-carboxylate] | 0.49 μm
C[C@@H](CO)NC(=O)Nc1nc2c(s1)[C@@H]1COC[C@H](C2)N1c1ncc(-c2cccc(OC(F)F)c2)o1 [Example 173, N-[(4S,8S)-10-{5-[3-(difluoromethoxy)phenyl]-1,3-oxazol-2-yl}-4,7,8,9-tetrahydro-5H-4,8-epiminooxocino[5,4-d][1,3]thiazol-2-yl]-N′-[(2S)-1-hydroxypropan-2-yl]urea] | 0.62 μm
CNC(=O)Nc1nc2c(s1)C1COCC(C2)N1c1nc(-c2cccc(C(=O)C3CC3)c2)no1 (stereo not drawn) [Example 112, N-(10-{3-[3-(cyclopropanecarbonyl)phenyl]-1,2,4-oxadiazol-5-yl}-4,7,8,9-tetrahydro-5H-4,8-epiminooxocino[5,4-d][1,3]thiazol-2-yl)-N′-methylurea] | 1.4 μm
CNC(=O)Nc1nc2c(s1)[C@@H]1COC[C@H](C2)N1c1nnc(-c2cccc(C(C)C)c2)o1 [Example 119, N-methyl-N′-[(4S,8S)-10-{5-[3-(propan-2-yl)phenyl]-1,3,4-oxadiazol-2-yl}-4,7,8,9-tetrahydro-5H-4,8-epiminooxocino[5,4-d][1,3]thiazol-2-yl]urea] | 2.2 μm
CC(C)(O)CNC(=O)Nc1nc2c(s1)CN(c1nc(C3(C(F)(F)F)CC3)no1)CC2 [Example 92, N-(2-hydroxy-2-methylpropyl)-N′-(5-{3-[1-(trifluoromethyl)cyclopropyl]-1,2,4-oxadiazol-5-yl}-4,5,6,7-tetrahydro[1,3]thiazolo[5,4-c]pyridin-2-yl)urea] | 3.5 μm
COc1nc(-c2cnc(N3[C@@H]4COC[C@H]3c3sc(NC(=O)N[C@H](C)CO)nc3C4)o2)ccc1C [Example 193, N-[(2R)-1-hydroxypropan-2-yl]-N′-{(4S,8S)-10-[5-(6-methoxy-5-methylpyridin-2-yl)-1,3-oxazol-2-yl]-4,7,8,9-tetrahydro-5H-4,8-epiminooxocino[5,4-d][1,3]thiazol-2-yl}urea] | 1.8 μm
CNC(=O)Nc1nc2c(s1)C1COCC(C2)N1c1ncc(-c2cccc(C(F)F)c2)o1 (stereo not drawn) [Example 14, N-(10-{5-[3-(difluoromethyl)phenyl]-1,3-oxazol-2-yl}-4,7,8,9-tetrahydro-5H-4,8-epiminooxocino[5,4-d][1,3]thiazol-2-yl)-N′-methylurea] | 0.94 μm
C[C@@H](O)CNC(=O)Nc1nc2c(s1)C1COCC(C2)N1c1nc(-c2ccc(F)cc2)no1 (stereo partly drawn) [Example 82, N-{10-[3-(4-fluorophenyl)-1,2,4-oxadiazol-5-yl]-4,7,8,9-tetrahydro-5H-4,8-epiminooxocino[5,4-d][1,3]thiazol-2-yl}-N′-[(2R)-2-hydroxypropyl]urea] | 1.7 μm
CNC(=O)Nc1nc2c(s1)CN(c1nc(C3CCC(F)(F)CC3)no1)CC2 [Example 1, N-{5-[3-(4,4-difluorocyclohexyl)-1,2,4-oxadiazol-5-yl]-4,5,6,7-tetrahydro[1,3]thiazolo[5,4-c]pyridin-2-yl}-N′-methylurea] | 1.7 μm
COc1cc(-c2noc(N3C4COCC3c3sc(NC(=O)N[C@H](C)CO)nc3C4)n2)ccc1F (stereo partly drawn) [Example 83, N-{10-[3-(4-fluoro-3-methoxyphenyl)-1,2,4-oxadiazol-5-yl]-4,7,8,9-tetrahydro-5H-4,8-epiminooxocino[5,4-d][1,3]thiazol-2-yl}-N′-[(2R)-1-hydroxypropan-2-yl]urea] | 0.68 μm
C[C@@H](CO)NC(=O)Nc1nc2c(s1)[C@@H]1COC[C@H](C2)N1c1ncc(-c2cccc(OC(F)F)n2)o1 [Example 169, N-[(4S,8S)-10-{5-[6-(difluoromethoxy)pyridin-2-yl]-1,3-oxazol-2-yl}-4,7,8,9-tetrahydro-5H-4,8-epiminooxocino[5,4-d][1,3]thiazol-2-yl]-N′-[(2S)-1-hydroxypropan-2-yl]urea] | 0.66 μm
O=C(Nc1nc2c(s1)[C@@H]1COC[C@H](C2)N1c1nc(-c2ccc(F)cc2)no1)N[C@H]1C[C@@H](O)C1 [Example 85, N-{10-[3-(4-fluorophenyl)-1,2,4-oxadiazol-5-yl]-4,7,8,9-tetrahydro-5H-4,8-epiminooxocino[5,4-d][1,3]thiazol-2-yl}-N′-[(1s,3s)-3-hydroxycyclobutyl]urea] | 0.51 μm
O=C(Nc1nc2c(s1)[C@@H]1COC[C@H](C2)N1c1cc(-c2ccc(F)cc2)on1)NC1CCS(=O)(=O)CC1 [Example 165, N-(1,1-dioxo-1λ^6-thian-4-yl)-N′-{(4S,8S)-10-[5-(4-fluorophenyl)-1,2-oxazol-3-yl]-4,7,8,9-tetrahydro-5H-4,8-epiminooxocino[5,4-d][1,3]thiazol-2-yl}urea] | 0.41 μm
CNC(=O)Nc1nc2c(s1)CN(c1nc(C3CCCC(F)(F)C3)no1)CC2 (stereo not drawn) [Example 36, N-{5-[3-(3,3-difluorocyclohexyl)-1,2,4-oxadiazol-5-yl]-4,5,6,7-tetrahydro[1,3]thiazolo[5,4-c]pyridin-2-yl}-N′-methylurea] | 1.9 μm
O=C(Nc1nc2c(s1)[C@@H]1COC[C@H](C2)N1c1cc(C2CCC(F)(F)CC2)on1)N[C@@H]1CCOC1 [Example 157, N-{(4S,8S)-10-[5-(4,4-difluorocyclohexyl)-1,2-oxazol-3-yl]-4,7,8,9-tetrahydro-5H-4,8-epiminooxocino[5,4-d][1,3]thiazol-2-yl}-N′-[(3R)-oxolan-3-yl]urea] | 4.6 μm
